According to patent US20050004167A1, “Branched chain amino acid-dependent aminotransferase inhibitors and their use in the treatment of neurodegenerative diseases” (WARNER-LAMBERT COMPANY LLC, priority 2001, published 2005):
Where “and” joins values, the source holds several entries; their conditions need not be identical. Identical values can stand only once.

What was measured:
rat BCAT cytosolic form = target: T1, rat BCAT cytosolic form (Rattus norvegicus, UniProt P54690); assay: In vitro coupled enzyme assay (glutamate dehydrogenase, NADH formation), rat BCATc; format: biochemical; details: recombinant rat BCATc, 37° C., 25 mM phosphate buffer pH 7.8; several values in a cell = repeat determinations; read-out: RrBCATc
T1 construct: made in house; host or cells: E. coli BL21(DE3)
T1 sequence (P54690 1-411): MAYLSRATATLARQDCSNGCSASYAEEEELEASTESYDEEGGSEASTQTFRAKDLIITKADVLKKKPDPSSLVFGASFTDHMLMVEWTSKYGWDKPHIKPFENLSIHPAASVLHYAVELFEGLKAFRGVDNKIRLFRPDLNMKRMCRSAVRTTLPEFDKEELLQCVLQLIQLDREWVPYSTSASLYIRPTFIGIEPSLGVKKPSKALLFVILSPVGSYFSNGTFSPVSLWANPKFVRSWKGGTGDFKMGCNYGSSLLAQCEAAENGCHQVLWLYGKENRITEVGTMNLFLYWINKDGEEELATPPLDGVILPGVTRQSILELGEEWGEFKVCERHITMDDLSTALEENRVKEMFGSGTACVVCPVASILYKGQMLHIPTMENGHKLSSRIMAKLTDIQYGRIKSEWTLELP
Method in brief: (§1)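 At 37 °C in 25 mM phosphate pH 7.8 with 2 mM DTT, 1.25 μg His-tag-purified E. coli-expressed BCAT transaminated 750 μM L-leucine with 500 μM α-ketoglutarate and 10 μM PLP. Glutamate was coupled via glutamate dehydrogenase (1 mM NAD+, 4 mM ADP) to NADH formation at 340 nm. Compounds were added in DMSO up to 5% v/v.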

[1] = target: T2, human Branched Chain Amino Acid Aminotransferase cytosolic form (hBCATc) (Homo sapiens, UniProt P54687); assay: In vitro coupled enzyme assay (glutamate dehydrogenase, NADH formation), human BCATc; format: biochemical; details: recombinant human BCATc, 37° C., 25 mM phosphate buffer pH 7.8; several values in a cell = repeat determinations; read-out: RhBCATc
T2 construct: made in house; host or cells: E. coli BL21(DE3)
T2 sequence (P54687 1-386): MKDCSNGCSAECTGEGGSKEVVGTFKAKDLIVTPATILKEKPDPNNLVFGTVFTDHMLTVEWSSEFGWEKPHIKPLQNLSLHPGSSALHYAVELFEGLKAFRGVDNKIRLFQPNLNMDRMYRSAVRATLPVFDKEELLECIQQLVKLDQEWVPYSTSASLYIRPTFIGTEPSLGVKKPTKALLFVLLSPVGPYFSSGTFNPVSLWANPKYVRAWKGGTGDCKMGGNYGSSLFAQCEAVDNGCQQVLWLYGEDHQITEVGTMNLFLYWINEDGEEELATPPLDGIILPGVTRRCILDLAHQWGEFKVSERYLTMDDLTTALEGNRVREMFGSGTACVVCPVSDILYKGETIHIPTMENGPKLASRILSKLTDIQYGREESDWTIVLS
Method in brief: as §1

SMILES	IC50 (rat BCAT cytosolic form)	IC50 [1]	melting point [°C]
Cc1c(Cl)cccc1S(=O)(=O)NNC(=O)c1cc2cc(Cl)ccc2o1 [Example 49, 2-Benzofurancarboxylic acid, 5-chloro-2-[(3-chloro-2-methylphenyl)sulfonyl]-hydrazide]	3.1 µM and 4 µM	1.75 µM and 3.6 µM	198.2 to 198.5
Cc1ccc(F)cc1S(=O)(=O)NNC(=O)c1cc2cc(Cl)ccc2o1 [Example 50, 2-Benzofurancarboxylic acid, 5-chloro-2-[(5-fluoro-2-methylphenyl)sulfonyl]-hydrazide]	1.3 µM	5.18 µM and 9.1 µM	209.6 to 211.2
Cc1cccc(S(=O)(=O)NNC(=O)c2cc3cc(Cl)cc(Cl)c3o2)c1 [Example 72, 2-Benzofurancarboxylic acid, 5,7-dichloro 2-[(3-methylphenyl)sulfonyl]-hydrazide]	1.86 µM	> 10 µM and 5.35 µM	230.4 to 231.1
O=C(NNS(=O)(=O)c1cccc(Br)c1)c1cc2cc(Cl)cc(Cl)c2o1 [Example 74, 2-Benzofurancarboxylic acid, 5,7-dichloro 2-[(3-bromophenyl)sulfonyl]-hydrazide]	3.71 µM	64.5 µM	248.5 to 248.8
O=C(NNS(=O)(=O)c1cccc(Cl)c1)c1cc2cc(Cl)cc(Cl)c2o1 [Example 75, 2-Benzofurancarboxylic acid, 5,7-dichloro 2-[(3-chlorophenyl)sulfonyl]-hydrazide]	0.88 µM	> 10 µM and 5.4 µM	245.6 to 245.7
O=C(NNS(=O)(=O)c1ccccc1OC(F)(F)F)c1cc2cc(Cl)cc(Cl)c2o1 [Example 76, 2-Benzofurancarboxylic acid, 5,7-dichloro 2-[[2-(trifluoromethoxy)phenyl]-sulfonyl]hydrazide]	1.51 µM	11.2 µM	234.5 to 236.1
O=C(NNS(=O)(=O)c1ccccc1C(F)(F)F)c1cnc2ccccc2c1 [Example 135, 3-Quinolinecarboxylic acid, 2-[(2-trifluoromethylphenyl)sulfonyl]hydrazide]	2.8 µM	13 µM	203.6 to 204.4
O=C(NNS(=O)(=O)c1ccccc1OC(F)(F)F)c1cnc2ccccc2c1 [Example 137, 3-Quinolinecarboxylic acid, 2-[(2-trifluoromethoxyphenyl)sulfonyl]hydrazide]	14 µM	41 µM	175.1 to 175.9
O=C(NNS(=O)(=O)c1ccccc1)c1ccc2c(c1)CCO2 [Example 149, 2,3-Dihydro-benzofuran-5-carboxylic acid 2-(phenylsulfonyl)hydrazide]	3.3 µM	17.9 µM	181 to 183

The remaining lines, values ahead:

IC50 (rat BCAT cytosolic form)	IC50 [1]	melting point [°C]	SMILES
0.3 µM	2.19 µM	218.2 to 219.8	O=C(NNS(=O)(=O)c1ccccc1OC(F)(F)F)c1cc2cc(Cl)ccc2o1 [Example 52, 2-Benzofurancarboxylic acid, 5-chloro-2-[[2-(trifluoromethoxy)phenyl]sulfonyl]-hydrazide]
0.22 µM	3.57 µM	172.2 to 173.8	COc1ccc2oc(C(=O)NNS(=O)(=O)c3ccccc3)c(OC)c2c1 [Example 58, 2-Benzofurancarboxylic acid, 3,5-dimethoxy-, 2-(phenylsulfonyl)hydrazide]
0.12 µM	3.42 µM	174.8 to 175.2	COc1ccc2c(OC)c(C(=O)NNS(=O)(=O)c3ccccc3)oc2c1 [Example 59, 2-Benzofurancarboxylic acid, 3,6-dimethoxy-, 2-(phenylsulfonyl)hydrazide]
0.15 µM	1.38 µM	184.3 to 184.6	CCOc1c(C(=O)NNS(=O)(=O)c2ccccc2)oc2ccc(-c3ccccc3)cc12 [Example 66, 2-Benzofurancarboxylic acid, 3-ethoxy-5-phenyl-, 2-(phenylsulfonyl)hydrazide]
0.05 µM	3.86 µM	216.4 to 218.1	O=C(NNS(=O)(=O)c1ccccc1)c1cc2cc(Cl)cc(Cl)c2o1 [Example 69, 2-Benzofurancarboxylic acid, 5,7-dichloro 2-(phenylsulfonyl)sulfonyl hydrazide]
0.43 µM	11.6 µM	245.6 to 247.6	O=C(NNS(=O)(=O)c1ccccc1C(F)(F)F)c1cc2cc(Cl)cc(Cl)c2o1 [Example 70]
0.88 µM	6.57 µM	212 to 214	Cc1ccccc1S(=O)(=O)NNC(=O)c1cc2cc(Cl)cc(Cl)c2o1 [Example 71, 2-Benzofurancarboxylic acid, 5,7-dichloro 2-[(2-methylphenyl)sulfonyl]hydrazide]
